Results on seven compounds are retold here after patent publication US9994536B2, “Compounds and methods of treating neurological disorders” (TORREY PINES INSTITUTE FOR MOLECULAR STUDIES, priority 2014, dated 2018).

For assay [1], the system named is Aβ42. Briefly: Aβ42 ELISA, NT2 stable cells. It is filed as cell-based, human. As to the method:
(§1) (5). To confirm the effect of THPI-244 on sAPPα levels in a neuronal cell line and by a tertiary assay, we exposed human Neuron-committed Teratocarcinoma cell line (NT2) stably expressing human APP751 to different concentrations of THPI-244 for 24 h and compared with that of Bryostatin, a classical activator of PKC known to stimulate sAPPα release. […] Levels of sAPPα were measured by ELISA using commercially available kit (cat #27734, IBL-America, Minneapolis, Minn., USA). […] Similar biphasic effect of Bryostatin was confirmed for Aβ42 also, measured again in NT2 stable cells by ELISA (cat #KHB3441, Life Technologies, Grand Island, N.Y., USA). Consistent with sAPPα, THPI-244 decreased Aβ42 levels dose-dependently starting from 50 nM (28%, p<0.05) to 2000 nM (64%, p<0.001) (n=4 independent experiments) (FIG. 1.7). Thus THPI-244 increased non-amyloidogenic processing of APP in NT2 cells.
For orientation: ELISA stands for enzyme-linked immunosorbent assay.

Assay [2] deals with sAPPα. Briefly: sAPPα ELISA, fibroblasts derived from AD patients. It is filed as cell-based, human. As to conditions: 24 h. As to the method: (1). […] Therefore, we first used fibroblasts derived from AD patients (AG06263C, Coriell Cell repository, supported by NINDS/NIH) and exposed to THPI-244 for 24 h and measured sAPPα release by ELISA as done above for NT2 cells. […] We also confirmed dose-dependent effect of THPI-244 on sAPPα levels in human primary neurons transiently transfected with APP751 with Swedish mutation which is trafficked differently from WT APP and releases more sAPPα. Human neurons were grown on specially coated glass coverslips (cat #GG-18-PDL, NeuVitro, Germany). We could reproducibly achieve nearly 30% transfection efficiency using a nanoparticle based transfection reagent called Neuromag (cat #NM150299, OZ Biosciences, France).

Assay [3] has as its system sAPPα. In words: sAPPα ELISA, NT2 cells stably expressing APP751. It is filed as cell-based, human. The conditions noted are these: 24 h. As to the method:
as §1

Assay [4] has as its target TrkA (Homo sapiens, UniProt P04629). Briefly: Table of THPI-244 analogs: TrkA increase.
Assay [5] has as its system sAPPα in supernatants of 7WD10 cells. Briefly: Western blot sAPPα release assay, 7WD10 cells. It is filed as cell-based. As to conditions: 10 nM, 7WD10 supernatant. As to the method: (2). To ascertain that hits identified as a result of AlphaLISA assay are not due to artifacts of the detection system, the sAPPα levels were measured by Western blots as a secondary assay downstream of primary HTS to confirm hits or discard artifacts of the AlphaLISA assay. The assay was performed using a range of concentrations of hit compounds (10-5,000 nM). A hit compound named thiazole piperazine #244 (THPI-244) and THPI-326 induced dose-dependent increase of sAPPα in supernatants of 7WD10 cells (FIG. 1.3). […] Since compound THPI-244 increased sAPPα levels more than THPI-326, we focused on THPI-244 for further validation.
Western blot sAPPα release assay. 7WD10 cells were grown in 6-well plates and treated with test compounds and SAHA (vorinostat) at several concentrations in duplicate wells. After 24 h of drug exposure, the conditioned media (CM) was collected, centrifuged to remove cell debris and subjected to SDS-PAGE electrophoresis. sAPPα (6E10, mouse IgG from IBL America ltd) was detected using indicated antibody. […] Samples were subjected to SDS-PAGE, transferred and immunoblotted with indicated antibodies and detected by enhanced chemiluminescence method. Quantification of Western blot signals was done using ImageJ software.
In general terms: Immunoblotting shows a protein as a band on a membrane.

The test system of assay [6] is sAPPα released from 7WD10 cells (CHO cells stably expressing APP751). In words: AlphaLISA sAPPα release assay (pilot HTS). It is filed as cell-based. As to the method:
(1). The pilot screen was performed using five 384 well plates. […] FDA approved oncology set was screened at 10 μM final assay concentration, while thiazole derivatives were screened at 5 μM. Seven hits from thiazole derivatives were identified using Ave+3SD rule (45) as a nominal cutoff for hit determination (FIG. 1.1 (bottom)). The hits represented a novel piperazine thiazole chemotype (FIG. 1.2).
Pilot screen of AlphaLISA sAPPα release assay. 8 μL of assay media (DMEM supplemented with 10% FBS and 1× Penicillin/Streptomycin) containing 20,000 cells were added to all wells of the assay plate, except column 1 where only media was added. Plates were incubated for 4 h at 37° C., 5% CO2, 95% RH after which 80 nL of test compounds in DMSO or DMSO alone were added to respective wells using a pin tool device (VP Scientific, San Diego). After 24 h of incubation at 37° C., 5% CO2, 95% RH, sAPPα AlphaLISA beads were added in 10 μL of buffer, equilibrated for 1 h, and AlphaLISA signal was measured using a Biotek H4 Synergy microplate reader (Biotek Inc). Three parameters were calculated on a per-plate basis: (a) the signal-to-background ratio (S/B); (b) the coefficient for variation [CV; CV=(standard deviation/mean)×100)] for all compound test wells; and (c) the Z′-factor [31]. Nominally active compounds from the pilot screen were determined using mean plus 3 times the standard deviation (Mean+3SD) was used as the cut-off.
In the absence of known pharmacological agents capable of inducing an increase of sAPPα release, we tested a small molecule (FIG. 2.4A insert, compound 1 in [2]) shown to decrease Aβ release. It was shown that decrease of Aβ release could be accompanied by the increase of soluble APPα, which has a neuroprotective effect. Compound 1 was tested using 20,000 cells/well in the range of 1.2-100 μM using 3-fold serial dilutions and 24 h incubation as an assay endpoint. Increase of sAPPα release was observed only in wells where 100 μM of compound 1 was added either with or without FBS (FIG. 2.4A). Viability of cells was also tested in the presence of 1.2-100 μM of compound 1 to ascertain that the increase of sAPPα release is not due to excessive cell death. Consistent with the above described results, cells were less viable in the absence of FBS. In the presence of 1.2-33 μM of compound 1, cells were approximately 10% less viable than untreated control either with or without FBS (FIG. 2.4B).
To evaluate the ability of the assay to identify compounds that increase the release of sAPPα a pilot screen was conducted using FDA approved oncology set (n=101) and TPIMS heterocycles library (n=700). The pilot screen was performed using five 384 well plates. […]

Assay [7] has as its system soluble APPα, soluble APPβ, Aβ. Briefly: APP processing blots after SAHA, 7WD10 cells. It is filed as cell-based. As to the method:
Western blot sAPPα release assay. 7WD10 cells were grown in 6-well plates and treated with test compounds and SAHA (vorinostat) at several concentrations in duplicate wells. After 24 h of drug exposure, the conditioned media (CM) was collected, centrifuged to remove cell debris and subjected to SDS-PAGE electrophoresis. sAPPα (6E10, mouse IgG from IBL America ltd) was detected using indicated antibody. To detect APP-FL holoprotein and C-terminal fragments (CTFs, CT15 antibody), the cells were lysed using lysis buffer (1% NP40) with complete protease inhibitor mix (Sigma) supplemented with sodium vanadate and microcystine. Samples were subjected to SDS-PAGE, transferred and immunoblotted with indicated antibodies and detected by enhanced chemiluminescence method. Quantification of Western blot signals was done using ImageJ software.
We utilized a commercially available AlphaLISA detection kit to develop an HTS assay for identification of compounds that increase sAPPα production in CHO cells stably expressing APP751 (7WD10 cells) (FIG. 2.1B). There are several cell lines that have been used extensively in Alzheimer's disease research. […] We have analyzed both 7WD10 and NT2 cells for expression of the hallmark proteins of Alzheimer's disease: soluble APPα, soluble APPβ, Arβ, and membrane-bound full length APP (APP-FL). […]

Assay [8] deals with soluble APPα, soluble APPβ, Aβ. Briefly: APP processing blots after SAHA, NT2 cells. It is filed as cell-based, human. From the text: We utilized a commercially available AlphaLISA detection kit to develop an HTS assay for identification of compounds that increase sAPPα production in CHO cells stably expressing APP751 (7WD10 cells) (FIG. 2.1B). There are several cell lines that have been used extensively in Alzheimer's disease research. For example, NT2 cells are highly used in AD basic and drug discovery research because they are derived from a human embryonal carcinoma cell line and they can be differentiated into post-mitotic neuron-like cells that develop functional dendrites and axons resembling primary neurons of the human brain [39]. NT2 cells also synthesize amyloid precursor protein important in Alzheimer's disease. However, the rate of growth of NT2 cells is much slower than rate of growth of 7WD10s cells, which makes them less HTS-amenable. We have analyzed both 7WD10 and NT2 cells for expression of the hallmark proteins of Alzheimer's disease: soluble APPα, soluble APPβ, Arβ, and membrane-bound full length APP (APP-FL). […] Since it was shown that broad HDAC inhibition results in a decrease of AR and an increase of soluble APPα [41] we tested both cell lines for the effect of application of SAHA (suberoylanilide hydroxamic acid or vorinostat), a pan-HDAC inhibitor [42].

The test system of assay [9] is human sAPPα. In words: sAPPα release ELISA, 7WD10 cells. It is filed as cell-based. The conditions noted are these: 24 h. As to the method:
Starting from p-methylbenzhydrylamine hydrochloride (MBHA.HCl) resin; we developed different approaches toward the diversity oriented solid-phase parallel synthesis of different aminothiazole compounds 1-6 (Scheme 1) (Micheals, H A et al., 2014, ACS Comb. Sci. 16, 1-4; Nefzi, A et al., 2010, J. Org. Chem. 75, 7939-7941). 575 thiazole compounds were synthesized and were tested for sAPPα increasing activity using CHO cells stably expressing APP751wt. For initial screenings we used a cell-based human sAPPα ELISA kit (cat #27734, IBL Co., ltd, Japan) following instructions from the manufacturer. The method involves sandwich ELISA and use of two specific antibodies and tetra methyl benzidine as a coloring agent. […]
sAPPα and Aβ40 release ELISA assay. […] The principle of the method is based on the use of tetra methyl benzidine (TMB) as a chromogen and the strength of the generated color is proportional to the quantities of human sAPPα. […] Plates were incubated with chromogen solution for 30 minutes, and read at 450 nm after adding stop solution. Levels of Aβ40 in the CM treated with different concentrations of compound 1 as detailed above were measured by sandwich ELISA exactly as described previously. Aβ40 was captured with Ab9 antibody (epitope, 1-16 of Aβ40) and detected with horseradish peroxidase-conjugated Ab13.1.1 antibody (epitope, 35-40 of Aβ40).

Sequence of TrkA (P04629 33-796, species assumed): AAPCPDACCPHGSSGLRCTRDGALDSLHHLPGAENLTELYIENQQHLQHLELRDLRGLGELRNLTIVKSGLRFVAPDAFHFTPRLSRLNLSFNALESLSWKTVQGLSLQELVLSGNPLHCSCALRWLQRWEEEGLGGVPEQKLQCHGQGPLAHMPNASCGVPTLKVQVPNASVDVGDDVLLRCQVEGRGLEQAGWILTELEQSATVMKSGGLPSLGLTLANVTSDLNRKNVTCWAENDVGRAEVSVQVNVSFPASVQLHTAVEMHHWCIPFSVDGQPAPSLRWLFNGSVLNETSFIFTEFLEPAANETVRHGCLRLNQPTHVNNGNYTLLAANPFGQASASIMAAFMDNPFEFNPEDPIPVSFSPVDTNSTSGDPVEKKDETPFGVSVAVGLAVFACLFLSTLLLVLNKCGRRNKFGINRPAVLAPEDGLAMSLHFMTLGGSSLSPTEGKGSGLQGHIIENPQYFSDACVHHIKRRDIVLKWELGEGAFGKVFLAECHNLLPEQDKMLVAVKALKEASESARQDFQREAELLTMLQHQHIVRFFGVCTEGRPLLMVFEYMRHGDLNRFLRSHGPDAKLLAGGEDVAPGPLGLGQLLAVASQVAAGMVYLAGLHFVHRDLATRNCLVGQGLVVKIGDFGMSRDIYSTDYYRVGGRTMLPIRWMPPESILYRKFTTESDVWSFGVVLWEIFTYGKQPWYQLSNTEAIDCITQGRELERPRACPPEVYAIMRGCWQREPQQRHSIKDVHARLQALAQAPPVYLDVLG

For the compound `CCC/C=C/C=C/C(=O)O[C@H]1/C(=C/C(=O)OC)C[C@H]2C[C@H]([C@@H](C)O)OC(=O)C[C@H](O)C[C@@H]3C[C@H](OC(C)=O)C(C)(C)[C@](O)(C[C@@H]4C/C(=C/C(=O)OC)C[C@H](/C=C/C(C)(C)[C@]1(O)O2)O4)O3` [Bryostatin, reference compound], the “lowest concentration with significant decrease of Aβ42” value in assay [1] is 10 nM. Besides, the “lowest concentration with significant increase of sAPPα” value in [2] and in assay [3] was 10 nM each time. The “effect on sAPPα release” value in assay [3] is reported as “increased sAPPα at low nM concentrations, but then decreased levels dose-dependently”.

On to `c1ccc(CCNc2nc(CN3CCOCC3)cs2)cc1` [TPI-2336-99], for which the “% TrkA ⬆” value in assay [4] is given as 51%.

As for `CCC(C)C(=O)N1CCN(Cc2csc(NC[C@H](Cc3ccc(O)cc3)NC(=O)Cc3ccccc3)n2)CC1` (stereo partly drawn) [THPI-326], the “increase of sAPPα over untreated control cells (Western blot)” value in assay [5] is 2 fold. The “increase of Alpha signal (sAPPα release)” value in assay [6] (5 μM, 7WD10 cells, 24 h) is on record as around 2 fold.

For the compound `O=C(CCCCCCC(=O)Nc1ccccc1)NO` [SAHA, suberoylanilide hydroxamic acid], the “change of Aβ” value in [7] and in [8] was “decrease” in each case.

As for `O=C(NCCSCc1cccc(Cl)c1)c1c(Cl)cccc1Cl` [compound 1, 2,6-dichloro-N-{2-[(3-chlorobenzyl)thio]ethyl}benzamide, reference compound], in assay [6] (100 μM compound 1), the “increase of AlphaLISA signal” value turned out to be 2 fold. Moreover, the “concentration at which increase of sAPPα release was observed” value in assay [6] (range 1.2-100 μM, 24 h, with or without FBS) amounted to 100 µM. Further, the “increase of sAPPα over untreated control cells (ELISA)” value in assay [9] (100 μM) was determined as 2 fold. Further, in [9] (150 μM), the “maximal increase of sAPPα (ELISA)” value is listed as 3 fold.

Take `c1ccc(CCNc2nc(CN3CCCCC3)cs2)cc1` [TPI-2336-100]: the “% TrkA ⬆” value in assay [4] is 54%.

Take `Cc1cnc(C(=O)N[C@H](CNc2nc(CN3CCNCC3)cs2)c2ccccc2)cn1` [TPI-2336-55]: the “% TrkA ⬆” value in [4] is listed as 69%.
